Test results published in patent publication US20220144838A1, “Compounds as Inhibitors of Macrophage Migration Inhibitory Factor” (NANJING IMMUNOPHAGE BIOTECH CO., LTD., priority 2019, published 2022).

molecular target: T1, MIF (Homo sapiens, UniProt P14174); assay: MIF tautomerase assay using pHPP as substrate; format: biochemical; details: FIGS. 1-5; mean of multiple test results; read-out: pIC50 MIF tautomerase activity (converted)
T1 sequence (P14174 2-115 limits assumed): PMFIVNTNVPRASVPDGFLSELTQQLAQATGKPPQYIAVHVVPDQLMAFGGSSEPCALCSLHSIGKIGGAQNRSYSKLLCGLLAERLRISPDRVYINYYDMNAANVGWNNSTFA
Method: Tautomerase Assay Using pHPP as Substrate
This assay measured MIF's tautomerase activity in a cell-free system and was based on the determination of initial rates of the MIF-catalyzed conversion of the ketonic into the enolic tautomer of pHPP. This was achieved by spectrophotometric quantification of the complex between borate and the product of the reaction (enolic pHPP). The substrate was prepared by conversion of the enolic pHPP into its ketonic form. To achieve this, 0.5 M pHPP in methanol was diluted 10-fold with 50 mM sodium acetate buffer at pH 6.0, and then the suspension was shaken for 24 h at room temperature in darkness, and finally stored at 4° C. for not more than 1 week, with 5 min sonication being recommended before use.
Assays were performed in small-volume clear-bottom black 96 or 384-well polystyrene plates (Greiner Bio-One). First, 2 μL of the enzyme solution containing 6 nM of MIF in DPBS, 0.025% w/v BSA, and 300 μM CHAPS was dispensed onto sample and negative control wells using Multidrop Combi with metallic tip cassettes (Thermo Fisher Scientific) previously treated with Sigmacote. Then, 2 μL of the same buffer without MIF was dispensed onto positive control wells. The reaction was started by addition of the following to all wells: 2 μL of substrate solution containing 3 mM ketonic pHPP in 200 mM boric acid, 25 mM sodium phosphate, 0.025% w/v BSA, and 300 μM CHAPS at pH 6.0. In order to remove bubbles, the plate was centrifuged in an Allegra 25R centrifuge (Beckman Coulter, Inc., Brea, Calif.) at 1000 rpm for 2 min at room temperature. Then, the plate was read in an EnVision. Final concentrations of enzyme and substrate were 3 nM and 1.5 mM, respectively. Initial rates were calculated for each well as the slope of the absorbance progress curve.
All exemplified compounds (Examples 1-230) were tested in the MIF tautomerase assay or a similar assay described above. The data mentioned below represents a mean pIC50 value of multiple test results. It is understood that the data illustrated below may have reasonable variation depending on the specific conditions and procedures used by the person conducting the testing.

| Compound | IC50 |
| --- | --- |
| CC(C)(C)OC(=O)Cn1cnc2c(-n3nnc4c(C(=O)O)cccc43)nc(N3CCN(c4ccc(O)cc4)CC3)nc21 [Example 100, 1-(9-(2-(tert-butoxy)-2-oxoethyl)-2-(4-(4-hydroxyphenyl)piperazin-1-yl)-9H-purin-6-yl)-1H-benzo[d][1,2,3]triazole-4-carboxylic acid] | ≤ 100 nM |

same assay, conditions: inhibition of the MIF enzyme in vitro; mean of multiple test results; read-out: Tautomerase Inhibition pIC50 (converted)

| IC50 | Compound |
| --- | --- |
| 10 to 97.7 nM | O=C(O)C1CCCN(c2nc(N3CCN(c4ccc(O)cc4)CC3)nc3c2ncn3-c2ccncc2)C1 (centres unmarked) [Example 170, 1-(2-(4-(4-hydroxyphenyl)piperazin-1-yl)-9-(pyridin-4-yl)-9H-purin-6-yl)piperidine-3-carboxylic acid] |
| 10 to 97.7 nM | Cc1cccc2c1nnn2-c1nc(N2CCN(c3ccc(O)cc3)CC2)nc2c1ncn2CC(=O)O [Example 20, 2-(2-(4-(4-hydroxyphenyl)piperazin-1-yl)-6-(4-methyl-1H-benzo[d][1,2,3]triazol-1-yl)-9H-purin-9-yl)acetic acid] |
| 100 to 977 nM | CC(CO)(CO)Nc1nc(N2CCN(c3ccc(O)cc3)CC2)nc2c1ncn2-c1ccncc1 [Example 177, 2-((2-(4-(4-hydroxyphenyl)piperazin-1-yl)-9-(pyridin-4-yl)-9H-purin-6-yl)amino)-2-methylpropane-1,3-diol] |
| 10 to 97.7 nM | O=C(O)Cn1cnc2c(-n3nnc4ccccc43)nc(N3CCN(c4ccc(O)cc4)CC3)nc21 [Example 24, 2-(6-(1H-benzo[d][1,2,3]triazol-1-yl)-2-(4-(4-hydroxyphenyl)piperazin-1-yl)-9H-purin-9-yl)acetic acid] |
| 100 to 977 nM | Oc1ccc(N2CCN(c3nc(-n4ncc5ccccc54)c4ncn(Cc5nnn[nH]5)c4n3)CC2)cc1 [Example 17, 4-(4-(9-((1H-tetrazol-5-yl)methyl)-6-(1H-indazol-1-yl)-9H-purin-2-yl)piperazin-1-yl)phenol] |
| > 10000 nM | OCCn1cnc2c(-n3ncc4ccccc43)nc(N3CCN(c4ccc(CO)cn4)CC3)nc21 [Example 154, 2-(2-(4-(5-(hydroxymethyl)pyridin-2-yl)piperazin-1-yl)-6-(1H-indazol-1-yl)-9H-purin-9-yl)ethan-1-ol] |
| 1000 to 9770 nM | COc1cccc(-n2cnc3c(C)nc(N4CCN(c5ccc(O)cc5)CC4)nc32)c1Cl [Example 61, 4-(4-(9-(2-chloro-3-methoxyphenyl)-6-methyl-9H-purin-2-yl)piperazin-1-yl)phenol] |
| 100 to 977 nM | Oc1ccc(N2CCN(c3nc(N4CCc5ccccc54)c4ncn(-c5cccnc5)c4n3)CC2)cc1 [Example 39, 4-(4-(6-(indolin-1-yl)-9-(pyridin-3-yl)-9H-purin-2-yl)piperazin-1-yl)phenol] |
| 100 to 977 nM | Oc1ccc(N2CCN(c3nc(-n4ncc5ccccc54)c4ncn(C5CCOC5)c4n3)CC2)nc1 (centres unmarked) [Example 228, 6-(4-(6-(1H-indazol-1-yl)-9-(tetrahydrofuran-3-yl)-9H-purin-2-yl)piperazin-1-yl)pyridin-3-ol] |
| 100 to 977 nM | CN(C)Cc1cccc2c1cnn2-c1nc(N2CCN(c3ccc(O)cn3)CC2)nc2c1ncn2CC(=O)O [Example 144, 2-(6-(4-((dimethylamino)methyl)-1H-indazol-1-yl)-2-(4-(5-hydroxypyridin-2-yl)piperazin-1-yl)-9H-purin-9-yl)acetic acid] |
| 10 to 97.7 nM | CCC(C(=O)O)n1cnc2c(-n3ncc4ccccc43)nc(N3CCN(c4ccc(O)cn4)CC3)nc21 (centres unmarked) [Example 142, 2-(2-(4-(5-hydroxypyridin-2-yl)piperazin-1-yl)-6-(1H-indazol-1-yl)-9H-purin-9-yl)butanoic acid] |
| 10 to 97.7 nM | O=C(O)CCCCn1cnc2c(-n3ncc4ccccc43)nc(N3CCN(c4ccc(O)cn4)CC3)nc21 [Example 149, 5-(2-(4-(5-hydroxypyridin-2-yl)piperazin-1-yl)-6-(1H-indazol-1-yl)-9H-purin-9-yl)pentanoic acid] |
| 10 to 97.7 nM | O=C(O)CNc1nc(N2CCN(c3ccc(O)cc3)CC2)nc2c1ncn2-c1ccncc1 [Example 163, (2-(4-(4-hydroxyphenyl)piperazin-1-yl)-9-(pyridin-4-yl)-9H-purin-6-yl)glycine] |
| > 10000 nM | O=C(O)C1CCN(c2nc(N3CCN(c4ccccc4)CC3)nc3c2ncn3-c2ccncc2)C1 (centres unmarked) [Example 182, 1-(2-(4-phenylpiperazin-1-yl)-9-(pyridin-4-yl)-9H-purin-6-yl)pyrrolidine-3-carboxylic acid] |
| 1000 to 9770 nM | Nc1nc(N2CCC(O)(c3ccc(F)cc3)CC2)nc2c1ncn2-c1ccncc1 [Example 210, 1-(6-amino-9-(pyridin-4-yl)-9H-purin-2-yl)-4-(4-fluorophenyl)piperidin-4-ol] |
| > 10000 nM | Nc1nc(N2CC=C(c3ccc(O)cc3)CC2)nc2c1ncn2-c1ccncc1 [Example 156, 4-(1-(6-amino-9-(pyridin-4-yl)-9H-purin-2-yl)-1,2,3,6-tetrahydropyridin-4-yl)phenol] |
| 10 to 97.7 nM | O=C(O)Cn1cnc2c(-n3ncc4ccccc43)nc(N3CC(O)(c4ccc(O)cc4)C3)nc21 [Example 216, 2-(2-(3-hydroxy-3-(4-hydroxyphenyl)azetidin-1-yl)-6-(1H-indazol-1-yl)-9H-purin-9-yl)acetic acid] |
| > 10000 nM | COc1ncccc1-n1cnc2c(N)nc(N3CCN(c4ccc(O)cc4)CC3)nc21 [Example 79, 4-(4-(6-amino-9-(2-methoxypyridin-3-yl)-9H-purin-2-yl)piperazin-1-yl)phenol] |
| 100 to 977 nM | O=C(O)Cn1cnc2c(-n3ncc4ccc(CO)cc43)nc(N3CCN(c4ccc(O)cc4)CC3)nc21 [Example 105, 2-(6-(6-(hydroxymethyl)-1H-indazol-1-yl)-2-(4-(4-hydroxyphenyl)piperazin-1-yl)-9H-purin-9-yl)acetic acid] |
| 1000 to 9770 nM | Nc1nc(N2CCN(c3ccc(O)cc3)CC2)nc2c1ncn2-c1ccccc1 [Example 66, 4-(4-(6-amino-9-phenyl-9H-purin-2-yl)piperazin-1-yl)phenol] |
| 10 to 97.7 nM | O=C(O)Cn1cnc2c(-n3nnc4ccncc43)nc(N3CCN(c4ccc(O)cc4)CC3)nc21 [Example 121, 2-(6-(3H-[1,2,3]triazolo[4,5-c]pyridin-3-yl)-2-(4-(4-hydroxyphenyl)piperazin-1-yl)-9H-purin-9-yl)acetic acid] |
| 1000 to 9770 nM | Cc1nc(N2CCN(c3ccc(O)cc3)CC2)nc2c1ncn2CCO [Example 111, 4-(4-(9-(2-hydroxyethyl)-6-methyl-9H-purin-2-yl)piperazin-1-yl)phenol] |
| 1000 to 9770 nM | Oc1ccc(N2CCN(c3nc(NCc4ccccc4)c4ncn(-c5cccnc5)c4n3)CC2)cc1 [Example 90, 4-(4-(6-(benzylamino)-9-(pyridin-3-yl)-9H-purin-2-yl)piperazin-1-yl)phenol] |
| 1000 to 9770 nM | CNC(=O)Cn1cnc2c(-n3cnc4ccccc43)nc(N3CCN(c4ccc(O)cc4)CC3)nc21 [Example 42, 2-(6-(1H-benzo[d]imidazol-1-yl)-2-(4-(4-hydroxyphenyl)piperazin-1-yl)-9H-purin-9-yl)-N-methylacetamide] |
| 100 to 977 nM | O=C(Cn1cnc2c(-n3ncc4ccccc43)nc(N3CCN(c4ccc(O)cc4)CC3)nc21)NS(=O)(=O)Cc1ccccc1 [Example 98, N-(benzylsulfonyl)-2-(2-(4-(4-hydroxyphenyl)piperazin-1-yl)-6-(1H-indazol-1-yl)-9H-purin-9-yl)acetamide] |
| 100 to 977 nM | O=C(O)Cn1cnc2c(-n3nc(-c4cccnc4)c4ccccc43)nc(N3CCN(c4ccc(O)cc4)CC3)nc21 [Example 36, 2-(2-(4-(4-hydroxyphenyl)piperazin-1-yl)-6-(3-(pyridin-3-yl)-1H-indazol-1-yl)-9H-purin-9-yl)acetic acid] |
| 1000 to 9770 nM | Cc1nc(N2CCN(c3ccc(O)cc3)CC2)nc2c1ncn2-c1cc(N2CCN(c3ccc(O)cc3)CC2)cnn1 [Example 64, 4-(4-(6-(2-(4-(4-hydroxyphenyl)piperazin-1-yl)-6-methyl-9H-purin-9-yl)pyridazin-4-yl)piperazin-1-yl)phenol] |
| > 10000 nM | O=C(O)Cn1cnc2c(N3N=CC4C=CC=CC43)nc(N3CCN(c4ccncc4)CC3)nc21 (centres unmarked) [Example 49, 2-(6-(3a,7a-dihydro-1H-indazol-1-yl)-2-(4-(pyridin-4-yl)piperazin-1-yl)-9H-purin-9-yl)acetic acid] |
| 1000 to 9770 nM | Nc1nc(N2CCN(c3ccc(O)cc3)CC2)nc2c1ncn2-c1cccc(O)c1 [Example 77, 3-(6-amino-2-(4-(4-hydroxyphenyl)piperazin-1-yl)-9H-purin-9-yl)phenol] |

| Compound | IC50 |
| --- | --- |
| O=C(O)Cn1cnc2c(-c3c[nH]c4ccccc34)nc(N3CCN(c4ccc(O)cc4)CC3)nc21 [Example 25, 2-(2-(4-(4-hydroxyphenyl)piperazin-1-yl)-6-(1H-indol-3-yl)-9H-purin-9-yl)acetic acid] | 1000 to 9770 nM |
| CC(C)(C)OC(=O)Cn1cnc2c(-n3nnc4c(C(=O)O)cccc43)nc(N3CCN(c4ccc(O)cc4)CC3)nc21 [Example 100, 1-(9-(2-(tert-butoxy)-2-oxoethyl)-2-(4-(4-hydroxyphenyl)piperazin-1-yl)-9H-purin-6-yl)-1H-benzo[d][1,2,3]triazole-4-carboxylic acid] | 10 to 97.7 nM |
